Laboratory results reported in PMC9696832, “Pyrazole-Based Thrombin Inhibitors with a Serine-Trapping Mechanism of Action: Synthesis and Biological Activity” (Pharmaceuticals, 2022).
Read-outs that look alike come from different tables or passages of the source.

What was measured:
human α-thrombin = target: T1, human α-thrombin (Homo sapiens, UniProt P00734); test: Serine protease inhibition assay, fluorogenic substrate: thrombin; format: biochemical
T1 construct: human α-thrombin (active) protein; purchased antibodies-online ABIN2127880
Protocol: Serine protease inhibition assays. The inhibitory activity of synthesized compounds towards thrombin, FXIIa, FXa, FXIa, plasmin, plasma kallikrein, chymotrypsin, and trypsin was measured by quantifying the hydrolysis rate of the fluorogenic substrate as reported previously [14, 17]. Briefly, the activity was tested in buffer (10 mM Tris-Cl, 150 mM NaCl, 10 mM MgCl2·6H2O, 1 mM CaCl2·2H2O, 0.1% w/v BSA, 0.01% v/v Triton-X100, pH = 7.4) utilizing clear flat-bottom, black polystyrene 96 well-plates. […] The fluorogenic substrate solution was added into the wells followed by the addition of 2 µL of test-compounds solution, and the reaction was triggered by addition of the enzyme solution (final testing volume–152 µL). In case of blank (substrate + buffer) and control (substrate + enzyme) wells, 2 µL of DMSO was added instead of the test-compounds’ solution. […] To derive IC50 values, endpoint RFU (single fluorescence reading) was used. Sigmoidal curves were prepared in GraphPad Prism software and IC50 values were derived from the fitted curves [14, 17].

human β-FXIIa = target: T2, human β-FXIIa (Homo sapiens, UniProt P00748); test: Serine protease inhibition assay, fluorogenic substrate: FXIIa; format: biochemical; conditions: for IC50: read-out: Serine Protease IC50 ± SD, FXIIa
T2 construct: human β-FXIIa, HFXIIAB; purchased Molecular Innovations HFXIIAB
T2 sequence (P00748 373-615 limits assumed, other chains not shown): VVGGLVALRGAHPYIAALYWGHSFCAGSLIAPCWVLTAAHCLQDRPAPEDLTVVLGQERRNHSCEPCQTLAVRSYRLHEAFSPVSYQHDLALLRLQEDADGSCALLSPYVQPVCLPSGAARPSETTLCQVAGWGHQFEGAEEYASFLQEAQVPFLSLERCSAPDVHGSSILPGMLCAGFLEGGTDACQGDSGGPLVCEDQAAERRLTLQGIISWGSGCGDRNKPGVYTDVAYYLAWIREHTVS
Protocol: Serine protease inhibition assays. The inhibitory activity of synthesized compounds towards thrombin, FXIIa, FXa, FXIa, plasmin, plasma kallikrein, chymotrypsin, and trypsin was measured by quantifying the hydrolysis rate of the fluorogenic substrate as reported previously. Briefly, the activity was tested in buffer (10 mM Tris-Cl, 150 mM NaCl, 10 mM MgCl2·6H2O, 1 mM CaCl2·2H2O, 0.1% w/v BSA, 0.01% v/v Triton-X100, pH = 7.4) utilizing clear flat-bottom, black polystyrene 96 well-plates. […] Dilutions of test-compounds ranging from 2 nM to 32 µM (final concentrations) in DMSO were prepared. The fluorogenic substrate solution was added into the wells followed by the addition of 2 µL of test-compounds solution, and the reaction was triggered by addition of the enzyme solution (final testing volume–152 µL). In case of blank (substrate + buffer) and control (substrate + enzyme) wells, 2 µL of DMSO was added instead of the test-compounds’ solution. Fluorescence intensity was measured with Microplate Reader Mithras LB 940 (Berthold Technologies, excitation at 355 nm, emission at 460 nm) for a period of 1 h (thrombin, FXIIa, FXa, FXIa, and trypsin), 30 min (plasma kallikrein, chymotrypsin), or 15 min (plasmin) with a read every minute. The reactions were performed at 25 °C. To derive IC50 values, endpoint RFU (single fluorescence reading) was used. Sigmoidal curves were prepared in GraphPad Prism software and IC50 values were derived from the fitted curves.

[1] = read-out: Serine Protease IC50 ± SD, Thrombin
[2] = [S]0 = 25 µM Boc-Val-Pro-Arg-AMC, Km = 18 ± 1 µM, triplicate, 25 °C, read-out: Serine Protease IC50 ± SD, Thrombin

IC50 (human α-thrombin; [1]) | IC50 (human β-FXIIa) | melting point | Compound | also measured
> 5 µM | > 5 µM | 272 °C | O=c1c2ccccc2n(Cc2ccco2)c2cc(-c3cccnc3)nn12 [10d, 4-[(furan-2-yl)methyl]-2-(pyridin-3-yl)pyrazolo[5,1-b]quinazolin-9(4H)-one] | –
– | > 5 µM | 130 to 131 °C | CC(C)(C)C(=O)n1nc(-c2cccnc2)cc1NCc1cccc2ccccc12 [24c, 2,2-dimethyl-1-(5-{[(naphthalen-1-yl)methyl]amino}-3-(pyridin-3-yl)-1H-pyrazol-1-yl)propan-1-one] | IC50 (human α-thrombin; [2]): > 5 µM
– | – | 270 °C (dec.) | O=C(Nc1cc(-c2cccnc2)n[nH]1)c1ccccc1 [26a, N-[3-(pyridin-3-yl)-1H-pyrazol-5-yl]benzamide] | –
> 5 µM | > 5 µM | – | O=C(Nc1cc(-c2cccnc2)n[nH]1)c1ccccc1I [compound 14, 2-iodo-N-[3-(pyridin-3-yl)-1H-pyrazol-5-yl]benzamide] | –
> 5 µM | > 5 µM | 137 °C | O=C(c1ccccc1I)n1nc(-c2cccnc2)cc1NCc1cccc2ccccc12 [9c, (2-iodophenyl)(5-{[(naphthalen-1-yl)methyl]amino}-3-(pyridin-3-yl)-1H-pyrazol-1-yl)methanone] | –
– | > 5 µM | 47 °C | CC(C)(C)C(=O)n1nc(C2CCCCC2)cc1NCc1ccccc1 [24h, 1-[5-(benzylamino)-3-cyclohexyl-1H-pyrazol-1-yl]-2,2-dimethylpropan-1-one] | thrombin inhibitory properties (in words) (human α-thrombin): inactive; IC50 (human α-thrombin; [2]): > 5 µM; FXIIa inhibitory properties (in words) (human β-FXIIa): inactive
> 5 µM | > 5 µM | 252 °C | O=c1c2ccccc2n(Cc2cccc3ccccc23)c2cc(-c3cccnc3)nn12 [10c, 4-[(naphthalen-1-yl)methyl]-2-(pyridin-3-yl)pyrazolo[5,1-b]quinazolin-9(4H)-one] | –
> 5 µM | > 5 µM | – | O=C(c1ccccc1I)n1nc(C2CCCCC2)cc1NCc1ccccc1 [9h, [5-(benzylamino)-3-cyclohexyl-1H-pyrazol-1-yl](2-iodophenyl)methanone] | –
> 5 µM | > 5 µM | 115 °C | O=C(c1ccccc1I)n1nc(-c2cccnc2)cc1NCc1ccccc1 [9a, [5-(benzylamino)-3-(pyridin-3-yl)-1H-pyrazol-1-yl](2-iodophenyl)methanone] | –
> 5 µM | > 5 µM | – | O=c1[nH]c2cc(-c3cccnc3)nn2c2ccccc12 [compound 15, 2-(pyridin-3-yl)pyrazolo[1,5-a]quinazolin-5(4H)-one] | –
– | > 5 µM | 137 to 138 °C | O=C(c1ccccc1I)n1nc(-c2ccccc2)cc1NCc1ccc(Cl)s1 [9g, (5-{[(5-chlorothiophen-2-yl)methyl]amino}-3-phenyl-1H-pyrazol-1-yl)(2-iodophenyl)methanone] | IC50 (human α-thrombin; [2]): 1.31 ± 0.032 µM; IC50 (human α-thrombin; read-out: thrombin IC50): 1.3 µM
> 5 µM | > 5 µM | 210 °C | O=c1c2ccccc2n(Cc2ccc(Cl)s2)c2cc(C3CCCCC3)nn12 [10i, 4-[(5-chlorothiophen-2-yl)methyl]-2-cyclohexylpyrazolo[5,1-b]quinazolin-9(4H)-one] | –
> 5 µM | > 5 µM | 266 °C | O=c1c2ccccc2n(Cc2ccccc2)c2cc(-c3cccnc3)nn12 [10a, 4-benzyl-2-(pyridin-3-yl)pyrazolo[5,1b]quinazolin-9(4H)-one] | –
> 5 µM | > 5 µM | – | Nc1cc(-c2cccnc2)nn1C(=O)c1ccccc1 [29a, [5-amino-3-(pyridin-3-yl)-1H-pyrazol-1-yl](phenyl)methanone] | –
– | > 5 µM | – | O=C(c1ccccc1I)n1nc(C2CCCCC2)cc1NCc1ccc(Cl)s1 [9i, (5-{[(5-chlorothiophen-2-yl)methyl]amino}-3-cyclohexyl-1H-pyrazol-1-yl)(2-iodophenyl)methanone] | thrombin inhibitory properties (in words) (human α-thrombin): no activity; IC50 (human α-thrombin; [2]): > 5 µM
> 5 µM | > 5 µM | – | O=c1c2ccccc2n(CC2CCCCC2)c2cc(-c3cccnc3)nn12 [10f, 4-(cyclohexylmethyl)-2-(pyridin-3-yl)pyrazolo[5,1-b]quinazolin-9(4H)-one] | –
– | > 5 µM | 92 to 93 °C | CC(C)(C)C(=O)n1nc(C2CCCCC2)cc1NCc1ccc(Cl)s1 [24i, 1-(5-{[(5-chlorothiophen-2-yl)methyl]amino}-3-cyclohexyl-1H-pyrazol-1-yl)-2,2-dimethylpropan-1-one] | IC50 (human α-thrombin; [2]): > 5 µM
– | > 5 µM | – | CC(C)(C)C(=O)n1nc(-c2ccccc2)cc1NCc1ccc(Cl)s1 [24g, 1-(5-{[(5-chlorothiophen-2-yl)methyl]amino}-3-phenyl-1H-pyrazol-1-yl)-2,2-dimethylpropan-1-one] | IC50 (human α-thrombin; [2]): 0.419 ± 0.099 µM
– | > 5 µM | – | CC(C)(C)C(=O)n1nc(-c2cccnc2)cc1NCc1ccco1 [24d, 1-(5-{[(furan-2-yl)methyl]amino}-3-(pyridin-3-yl)-1H-pyrazol-1-yl)-2,2-dimethylpropan-1-one] | IC50 (human α-thrombin; [2]): 1.31 ± 0.032 µM; IC50 (human α-thrombin; read-out: thrombin IC50): ~1.3 µM
0.165 ± 0.005 µM | > 5 µM | – | O=C(c1ccccc1I)n1nc(-c2cccnc2)cc1NCc1ccc(Cl)s1 [9e, (5-{[(5-chlorothiophen-2-yl)methyl]amino}-3-(pyridin-3-yl)-1H-pyrazol-1-yl)(2-iodophenyl)methanone] | fold more potent thrombin inhibitor than 3-phenyl-substituted counterpart 9g (human α-thrombin; IC50 165 nM vs. 1.3 μM): about 8 fold
> 5 µM | > 5 µM | – | O=C(c1ccccc1I)n1nc(-c2cccnc2)cc1NCC1CCCCC1 [9f, {5-[(cyclohexylmethyl)amino]-3-(pyridin-3-yl)-1H-pyrazol-1-yl}(2-iodophenyl)methanone] | –
> 5 µM | > 5 µM | – | O=c1c2ccccc2[nH]c2nc(-c3cccnc3)nn12 [compound 20, 2-(pyridin-3-yl)-[1,2,4]triazolo[5,1-b]quinazolin-9(4H)-one] | –
> 5 µM | > 5 µM | – | Nc1cc(-c2ccccc2)nn1C(=O)c1ccccc1 [29b, (5-amino-3-phenyl-1H-pyrazol-1-yl)(phenyl)methanone] | –
> 5 µM | > 5 µM | – | O=c1[nH]c2nc(-c3cccnc3)nn2c2ccccc12 [compound 21, 2-(pyridin-3-yl)-[1,2,4]triazolo[1,5-a]quinazolin-5(4H)-one] | –
> 5 µM | > 5 µM | – | O=c1[nH]c2nc(-c3ccncc3)nn2c2ccccc12 [compound 23, 2-(pyridin-4-yl)-[1,2,4]triazolo[1,5-a]quinazolin-5(4H)-one] | –
> 5 µM | > 5 µM | – | O=c1c2ccccc2n(Cc2ccc(Cl)s2)c2nc(-c3cnccn3)nn12 [compound 19, 4-[(5-chlorothiophen-2-yl)methyl]-2-(pyrazin-2-yl)-[1,2,4]triazolo[5,1-b]quinazolin-9(4H)-one] | –
> 5 µM | > 5 µM | – | O=c1c2ccccc2n(Cc2ccc(Cl)s2)c2cc(-c3ccccc3)nn12 [10g, 4-[(5-chlorothiophen-2-yl)methyl]-2-phenylpyrazolo[5,1-b]quinazolin-9(4H)-one] | –
> 5 µM | – | – | O=c1c2ccccc2[nH]c2nc(-c3ccncc3)nn12 [compound 22, 2-(pyridin-4-yl)-[1,2,4]triazolo[5,1-b]quinazolin-9(4H)-one] | –
– | > 5 µM | – | [H]/N=C(/N)c1ccc(NCc2nc3cc(C(=O)N(CCC(=O)O)c4ccccn4)ccc3n2C)cc1 [Dabigatran, reference compound] | –
